Test results taken from PubChem BioAssay (NCI).
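48-hour exposure; five concentrations; linearly interpolated endpoints. The concentration for 50% growth inhibition is given as GI50. TGI: concentration producing complete growth inhibition.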

Assays:
Test in all cases: NCI anticancer screen, dose series, 48 h; in the data active = GI50 below about 0.43 µM; inactive = the rest
786-0 renal = test system: 786-0 renal
A498 renal = test system: A498 renal
A549 NSCLC = test system: A549 NSCLC
ACHN renal = test system: ACHN renal
BT-549 breast = test system: BT-549 breast
CAKI-1 renal = test system: CAKI-1 renal
CCRF-CEM leukemia = test system: CCRF-CEM leukemia
COLO 205 colon = test system: COLO 205 colon
DU-145 prostate = test system: DU-145 prostate
HCC-2998 colon = test system: HCC-2998 colon
HCT-116 colon = test system: HCT-116 colon
HCT-15 colon = test system: HCT-15 colon
HL-60(TB) leukemia = test system: HL-60(TB) leukemia
HOP-62 NSCLC = test system: HOP-62 NSCLC
HOP-92 NSCLC = test system: HOP-92 NSCLC
HS 578T breast = test system: HS 578T breast
HT29 colon = test system: HT29 colon
IGROV1 ovarian = test system: IGROV1 ovarian
K-562 leukemia = test system: K-562 leukemia
KM12 colon = test system: KM12 colon
LOX IMVI melanoma = test system: LOX IMVI melanoma
M14 melanoma = test system: M14 melanoma
MALME-3M melanoma = test system: MALME-3M melanoma
MCF7 breast = test system: MCF7 breast
MDA-MB-231 breast = test system: MDA-MB-231 breast
MDA-MB-435 = test system: MDA-MB-435
MOLT-4 leukemia = test system: MOLT-4 leukemia
NCI-H226 lung = test system: NCI-H226 lung
NCI-H23 lung = test system: NCI-H23 lung
NCI-H460 lung = test system: NCI-H460 lung
NCI-H522 lung = test system: NCI-H522 lung
NCI/ADR-RES ovarian = test system: NCI/ADR-RES ovarian
OVCAR-3 ovarian = test system: OVCAR-3 ovarian
OVCAR-4 ovarian = test system: OVCAR-4 ovarian
OVCAR-5 ovarian = test system: OVCAR-5 ovarian
OVCAR-8 ovarian = test system: OVCAR-8 ovarian
PC-3 prostate = test system: PC-3 prostate
RPMI-8226 leukemia = test system: RPMI-8226 leukemia
RXF 393 renal = test system: RXF 393 renal
SF-268 CNS = test system: SF-268 CNS
SF-295 CNS = test system: SF-295 CNS
SF-539 CNS = test system: SF-539 CNS
SK-MEL-2 melanoma = test system: SK-MEL-2 melanoma
SK-MEL-28 melanoma = test system: SK-MEL-28 melanoma
SK-MEL-5 melanoma = test system: SK-MEL-5 melanoma
SK-OV-3 ovarian = test system: SK-OV-3 ovarian
SN12C renal = test system: SN12C renal
SNB-19 CNS = test system: SNB-19 CNS
SNB-75 CNS = test system: SNB-75 CNS
SR leukemia = test system: SR leukemia
SW-620 colon = test system: SW-620 colon
T-47D breast = test system: T-47D breast
TK-10 renal = test system: TK-10 renal
U251 CNS = test system: U251 CNS
UACC-257 melanoma = test system: UACC-257 melanoma
UACC-62 melanoma = test system: UACC-62 melanoma
UO-31 renal = test system: UO-31 renal
EKVX NSCLC = test system: EKVX NSCLC

O=C1NC(=O)/C(=C/c2ccc3ncccc3c2)S1
> 21.7 µM: TGI (IGROV1 ovarian)
2200 nM: TGI (A498 renal)
inactive: GI50 (786-0 renal) > 25 µM | GI50 (A549 NSCLC) > 23.1 µM | GI50 (ACHN renal) > 25 µM | GI50 (BT-549 breast) > 25 µM | GI50 (CAKI-1 renal) > 25 µM | GI50 (CCRF-CEM leukemia) > 25 µM | GI50 (COLO 205 colon) > 25 µM | GI50 (DU-145 prostate) > 25 µM | GI50 (HCC-2998 colon) > 25 µM | GI50 (HCT-116 colon) > 25 µM | GI50 (HCT-15 colon) > 21.1 µM | GI50 (HL-60(TB) leukemia) 8.14 µM | GI50 (HOP-62 NSCLC) > 25 µM | GI50 (HOP-92 NSCLC) 749 nM | GI50 (HS 578T breast) 1960 nM | GI50 (HT29 colon) 19.9 µM | GI50 (IGROV1 ovarian) > 6.1 µM | GI50 (K-562 leukemia) > 25 µM | GI50 (KM12 colon) > 25 µM | GI50 (LOX IMVI melanoma) 13.7 µM | GI50 (M14 melanoma) 13.7 µM | GI50 (MALME-3M melanoma) 7.11 µM | GI50 (MCF7 breast) 2020 nM | GI50 (MDA-MB-231 breast) > 25 µM | GI50 (MDA-MB-435) > 25 µM | GI50 (MOLT-4 leukemia) > 25 µM | GI50 (NCI-H226 lung) > 25 µM | GI50 (NCI-H23 lung) > 25 µM | GI50 (NCI-H460 lung) 12.6 µM | GI50 (NCI-H522 lung) > 20.3 µM | GI50 (NCI/ADR-RES ovarian) > 25 µM | GI50 (OVCAR-3 ovarian) > 25 µM | GI50 (OVCAR-4 ovarian) > 25 µM | GI50 (OVCAR-5 ovarian) 8.3 µM | GI50 (OVCAR-8 ovarian) > 25 µM | GI50 (PC-3 prostate) 17.9 µM | GI50 (RPMI-8226 leukemia) > 25 µM | GI50 (RXF 393 renal) > 23.2 µM | GI50 (SF-268 CNS) > 25 µM | GI50 (SF-295 CNS) > 25 µM | GI50 (SF-539 CNS) > 25 µM | GI50 (SK-MEL-2 melanoma) > 25 µM | GI50 (SK-MEL-28 melanoma) 17.2 µM | GI50 (SK-MEL-5 melanoma) > 25 µM | GI50 (SK-OV-3 ovarian) 6.08 µM | GI50 (SN12C renal) > 25 µM | GI50 (SNB-19 CNS) > 25 µM | GI50 (SNB-75 CNS) 1400 nM | GI50 (SR leukemia) > 25 µM | GI50 (SW-620 colon) > 25 µM | GI50 (T-47D breast) 1230 nM | GI50 (TK-10 renal) 6 µM | GI50 (U251 CNS) > 25 µM | GI50 (UACC-257 melanoma) > 14.5 µM | GI50 (UACC-62 melanoma) 16.3 µM | GI50 (UO-31 renal) 3.51 µM
> 22.6 µM: TGI (T-47D breast)
> 18.7 µM: TGI (HS 578T breast)
> 25 µM: TGI (786-0 renal) | TGI (A549 NSCLC) | TGI (ACHN renal) | TGI (BT-549 breast) | TGI (CAKI-1 renal) | TGI (CCRF-CEM leukemia) | TGI (COLO 205 colon) | TGI (DU-145 prostate) | TGI (HCC-2998 colon) | TGI (HCT-116 colon) | TGI (HCT-15 colon) | TGI (HL-60(TB) leukemia) | TGI (HOP-62 NSCLC) | TGI (HT29 colon) | TGI (K-562 leukemia) | TGI (KM12 colon) | TGI (LOX IMVI melanoma) | TGI (M14 melanoma) | TGI (MCF7 breast) | TGI (MDA-MB-231 breast) | TGI (MDA-MB-435) | TGI (MOLT-4 leukemia) | TGI (NCI-H226 lung) | TGI (NCI-H23 lung) | TGI (NCI-H460 lung) | TGI (NCI-H522 lung) | TGI (NCI/ADR-RES ovarian) | TGI (OVCAR-3 ovarian) | TGI (OVCAR-4 ovarian) | TGI (OVCAR-5 ovarian) | TGI (OVCAR-8 ovarian) | TGI (PC-3 prostate) | TGI (RPMI-8226 leukemia) | TGI (RXF 393 renal) | TGI (SF-268 CNS) | TGI (SF-295 CNS) | TGI (SF-539 CNS) | TGI (SK-MEL-2 melanoma) | TGI (SK-MEL-28 melanoma) | TGI (SK-MEL-5 melanoma) | TGI (SK-OV-3 ovarian) | TGI (SN12C renal) | TGI (SNB-19 CNS) | TGI (SNB-75 CNS) | TGI (SR leukemia) | TGI (SW-620 colon) | TGI (TK-10 renal) | TGI (U251 CNS) | TGI (UACC-257 melanoma) | TGI (UACC-62 melanoma) | TGI (UO-31 renal)
active: GI50 (A498 renal) 307 nM
> 22.8 µM: TGI (HOP-92 NSCLC)
> 20.7 µM: TGI (MALME-3M melanoma)

NC(CCCCO)C(=O)O (configuration not stated)
> 100 µM: TGI (A549 NSCLC) | TGI (ACHN renal) | TGI (BT-549 breast) | TGI (CAKI-1 renal) | TGI (CCRF-CEM leukemia) | TGI (COLO 205 colon) | TGI (DU-145 prostate) | TGI (EKVX NSCLC) | TGI (HCC-2998 colon) | TGI (HCT-15 colon) | TGI (HL-60(TB) leukemia) | TGI (HOP-62 NSCLC) | TGI (HOP-92 NSCLC) | TGI (HS 578T breast) | TGI (HT29 colon) | TGI (IGROV1 ovarian) | TGI (K-562 leukemia) | TGI (KM12 colon) | TGI (LOX IMVI melanoma) | TGI (M14 melanoma) | TGI (MALME-3M melanoma) | TGI (MCF7 breast) | TGI (MDA-MB-231 breast) | TGI (MDA-MB-435) | TGI (NCI-H226 lung) | TGI (NCI-H23 lung) | TGI (NCI-H460 lung) | TGI (NCI-H522 lung) | TGI (NCI/ADR-RES ovarian) | TGI (OVCAR-3 ovarian) | TGI (OVCAR-4 ovarian) | TGI (OVCAR-5 ovarian) | TGI (OVCAR-8 ovarian) | TGI (PC-3 prostate) | TGI (RPMI-8226 leukemia) | TGI (RXF 393 renal) | TGI (SF-268 CNS) | TGI (SF-295 CNS) | TGI (SK-MEL-2 melanoma) | TGI (SK-MEL-28 melanoma) | TGI (SK-MEL-5 melanoma) | TGI (SK-OV-3 ovarian) | TGI (SNB-19 CNS) | TGI (SNB-75 CNS) | TGI (SR leukemia) | TGI (SW-620 colon) | TGI (T-47D breast) | TGI (TK-10 renal) | TGI (U251 CNS) | TGI (UACC-257 melanoma) | TGI (UACC-62 melanoma) | TGI (UO-31 renal)
> 100000 nM: TGI (A498 renal)
